We go through 34 compounds from patent US20030212061A1, “Aza-thioxanthenones with antitumor activity” (priority 2002, published 2003).

Where two headings read alike, the source gives them in different places.

As a reminder, the GI50 is the concentration giving 50% growth inhibition.

Experiment [1] relates to HeLa S-3 cells. Nature of the experiment: Inhibition of cell growth (GI50), sulforhodamine B staining. The conditions noted are these: for Folds Improvements: GI50 of carbocyclic congener versus GI50 of aza-analog. The experiment is classed as cell-based. The procedure: Growth inhibition (GI50) values were measured with HeLa S-3 cells selected for growth on plastic. The procedure was based on the protocol of Skehan et al. (Skehan, P., et al., J. Natl. Cancer Inst., 82:1107-1112 (1990), which is hereby incorporated by reference) HeLa cells were plated at 2×10^4 cells/well in 96 well plates. One day later, a control plate was fixed by addition of TCA to 5%. After five rinses with tap water, the plate was air dried and stored at 4° C. Test compounds were added to the remaining plates at 10-fold dilutions between 0.01 and 100 μM. Two days later, all plates were fixed as described above. Cells were then stained by the addition of 100 μl per well of 0.4% sulforhodamine B (SRB) in 1% acetic acid for 30 min at 4° C. Wells were then quickly rinsed 5×with acetic acid (1%) and allowed to air dry. The SRB was then solubilized by the addition of 100 μl per well of unbuffered 10 mM Tris base. Dye was quantified by measuring absorbance at 490 nm on a Molecular Devices kinetic microplate reader. Growth at each inhibitor concentration relative to the untreated control was calculated according to the following equation: percent growth=100×(T−To)/(C−To), where T was the average optical density (OD) of the test wells after 2 days of treatment, To was the average OD of the wells in the control plate on day 0 and C was the average OD of untreated wells. Plots of percent growth versus inhibitor concentration were used to determine the GI50.
The data below shown in Table 4 summarizes the in vitro growth inhibition constants (GI50) of HeLa Cells for the compounds of the current invention.
GI50 is the concentration of the compound that causes a 50 percent inhibition of tumor cell growth
On the technique in general: The SRB assay estimates cell density from bound dye.

Experiment [2] relates to murine leukemia (L1210) and P388 leukemia cells. The conditions noted are these: in vitro L1210 and in vivo P388; cited from earlier work.
The mark [3] stands for this setting: Homo sapiens, HeLa S3, 48 h, HeLa cells, 2 days of treatment, Table 4, read-out: GI50 Activity.
[4] abbreviates: Homo sapiens, HeLa S3, HeLa cells, Table 5, carbocyclic congener, read-out: GI50 (Carbocic Congener).
[5] abbreviates: Homo sapiens, HeLa S3, HeLa cells, Table 5, aza-analog, read-out: GI50 (Aza-Analog).

On to `CCN(CC)CCNc1ccc(C=O)c2sc3ccccc3c(=O)c12`, for which the GI50 in experiment [1] (setting [3]) turned out to be 2 µM.

Turning to `CCN(CC)CCN(C)c1ccc2c(=O)c3cnccc3sc2c1`, in experiment [1] (setting [3]), the GI50 is over 10 µM.

On to `CCN(CC)CCNc1ccc(CNC(=O)OC)c2sc3ccncc3c(=O)c12`, for which, in experiment [1] (setting [3]), the GI50 was 0.3 µM.

For the compound `CCN(CC)CCn1nc2c3c(cccc31)Sc1ccncc1-2`, the concentration for 50% growth inhibition (GI50) in experiment [1] (setting [3]) stood at 1 µM.

Turning to `CCN(CC)CCn1nc2c3c(c(CNC(=O)OC)ccc31)Sc1ccncc1-2`, the concentration for 50% growth inhibition (GI50) in experiment [1] (setting [3]) was 0.1 µM.

For the compound `CCN(CC)CCN(N)c1ccc2c(=O)c3cnccc3sc2c1`, in experiment [1] (setting [3]), the concentration for 50% growth inhibition (GI50) is over 10 µM.

Consider `CCN(CC)CCn1nc2c3c(c(CNC=O)ccc31)Sc1ccncc1-2`, for which the GI50 in experiment [1] (setting [3]) amounted to 0.2 µM.

As for `CCN(CC)CCn1nc2c3c(c(CN)ccc31)Sc1ccncc1-2`, the concentration for 50% growth inhibition (GI50) in experiment [1] (setting [3]) stood at 0.2 µM.

With `CCN(CC)CCn1nc2c3c(cccc31)Sc1ccccc1-2`, in experiment [1] (setting [3]), the GI50 came to 9 µM.

For `CCN(CC)CCn1nc2c3c(c(C=O)ccc31)Sc1ccccc1-2`, in experiment [1] (setting [3]), the GI50 is 2 µM.

On to `CCN(CC)CCn1nc2c3c(c(CNC=O)ccc31)Sc1ccccc1-2`, for which, in experiment [1] (setting [3]), the GI50 turned out to be 1 µM.

In the case of `CCN(CC)CCn1nc2c3c(c(CN)ccc31)Sc1ccccc1-2`, the GI50 in experiment [1] (setting [3]) is 1 µM.

For `CCN(CC)CCn1nc2c3c(c(CNS(C)(=O)=O)ccc31)Sc1ccccc1-2`, in experiment [1] (setting [3]), the GI50 is 0.9 µM.

In the case of `CCN(CC)CCn1nc2c3c(c(CNC(=O)OC)ccc31)Sc1ccccc1-2`, the GI50 in experiment [1] (setting [3]) is 3 µM.

As to `CN(C)CCNC(=O)c1cccc2c(=O)c3ccccc3sc12.Cl` [N-[2-(dimethylamino)ethyl-]-9-oxo-9H-thioxanthene-4-carboxamide monohydrochloride], the “assessment as a potential antitumor agent” value in experiment [2] is “unlikely to worth pursuing”.

`CCN(CC)CCNc1cccc2sc3ccccc3c(=O)c12` [drawing 74]: the GI50 in experiment [1] (setting [3]) is over 10 µM.

Take `CCN(CC)CCNc1ccc(CNC=O)c2sc3ccccc3c(=O)c12` [drawing 76]: the GI50 in experiment [1] (setting [3]) turned out to be 3 µM.

Consider `CCN(CC)CCNc1ccc(CN)c2sc3ccccc3c(=O)c12` [drawing 77], for which the 50% growth inhibitory concentration (GI50) in experiment [1] (setting [3]) stood at 0.6 µM.

`CCN(CC)CCNc1ccc(CNS(C)(=O)=O)c2sc3ccccc3c(=O)c12` [drawing 78]: the GI50 in experiment [1] (setting [3]) is 3 µM.

As for `CCN(CC)CCNc1ccc(CNC(=O)OC)c2sc3ccccc3c(=O)c12` [drawing 79], the GI50 in experiment [1] (setting [3]) came to 3 µM.

For the compound `CCN(CC)CCNc1cccc2sc3ccncc3c(=O)c12` [drawing 81], in experiment [1] (setting [3]), the concentration for 50% growth inhibition (GI50) amounted to 3 µM.

As for `CCN(CC)CCNc1ccc(CNC=O)c2sc3ccncc3c(=O)c12` [drawing 82], the 50% growth inhibitory concentration (GI50) in experiment [1] (setting [3]) was determined as 1 µM.

For `CCN(CC)CCNc1ccc(CN)c2sc3ccncc3c(=O)c12` [drawing 83], the concentration for 50% growth inhibition (GI50) in experiment [1] (setting [3]) was 0.7 µM.

Consider `CCN(CC)CCNc1ccc(CNS(C)(=O)=O)c2sc3ccncc3c(=O)c12` [drawing 84], for which the GI50 in experiment [1] (setting [3]) is 0.4 µM.

As for `CCN(CC)CCNc1cccc2sc3ccccc3c(=O)c12` [drawing 97, reference compound], in experiment [1] (setting [4]), the GI50 was over 10 µM.

Take `CCN(CC)CCNc1cccc2sc3ccncc3c(=O)c12` [drawing 98]: in experiment [1] (HeLa cells), the “Folds Improvements” value came out at 3.5. In addition, in experiment [1] (setting [5]), the concentration for 50% growth inhibition (GI50) stood at 3 µM.

In the case of `CCN(CC)CCNc1ccc(CNC=O)c2sc3ccccc3c(=O)c12` [drawing 99, reference compound], the GI50 in experiment [1] (setting [4]) was found to be 3 µM.

With `CCN(CC)CCNc1ccc(CNC=O)c2sc3ccncc3c(=O)c12` [drawing 100], the “Folds Improvements” value in experiment [1] (HeLa cells) worked out at 3. Moreover, in experiment [1] (setting [5]), the GI50 was 1 µM.

On to `CCN(CC)CCNc1ccc(CN)c2sc3ccccc3c(=O)c12` [drawing 101, reference compound], for which the GI50 in experiment [1] (setting [4]) turned out to be 0.6 µM.

`CCN(CC)CCNc1ccc(CN)c2sc3ccncc3c(=O)c12` [drawing 102]: the “Folds Improvements” value in experiment [1] (HeLa cells) is on record as 1. Moreover, the GI50 in experiment [1] (setting [5]) was found to be 0.7 µM.

On to `CCN(CC)CCNc1ccc(CNS(C)(=O)=O)c2sc3ccccc3c(=O)c12` [drawing 103, reference compound], for which the GI50 in experiment [1] (setting [4]) came to 3 µM.

Take `CCN(CC)CCNc1ccc(CNS(C)(=O)=O)c2sc3ccncc3c(=O)c12` [drawing 104]: the “Folds Improvements” value in experiment [1] (HeLa cells) was determined as 7.5. Besides, the concentration for 50% growth inhibition (GI50) in experiment [1] (setting [5]) came out at 0.4 µM.

Regarding `CCN(CC)CCNc1ccc(CNC(=O)OC)c2sc3ccccc3c(=O)c12` [drawing 105, reference compound], in experiment [1] (setting [4]), the GI50 turned out to be 3 µM.

Turning to `CCN(CC)CCNc1ccc(CNS(C)(=O)=O)c2sc3ccncc3c(=O)c12` [drawing 106], the “Folds Improvements” value in experiment [1] (HeLa cells) is 10. Moreover, the GI50 in experiment [1] (HeLa cells, Table 5, aza-analog, read-out: GI50 (Aza-Analog)) stood at 0.3 µM.
